The record followed here is patent publication US12509422B2, “Bisamide compound and application thereof” (METISA BIOTECHNOLOGY CO., LTD, priority 2019, dated 2025).

Structures are written as SMILES.

For this experiment, the system named is Chilo suppressalis. Nature of the experiment: Insecticidal activity against Chilo suppressalis, sprayed Oryza sativa seedlings, stalks fed to larvae. To be noted: parallel comparison test; for pest or weed control at 1 µg/mL / pest or weed control at 10 µg/mL: Chilo suppressalis, 72 h, 3 days after the treatment; for pest or weed control at 1 µg/mL: 1 mg/L, read-out: Lethality rate (%, 3 days after the treatment) 1 mg/L; for pest or weed control at 10 µg/mL: 10 mg/L, read-out: Lethality rate (%, 3 days after the treatment) 10 mg/L. The format is in vivo. As to the method: The compounds of the invention were determined for the insecticidal activities against several insects. The determination method was as follows:
After being dissolved in a mixed solvent of acetone/methanol (1:1), the test compound was diluted with water containing 0.1% (wt) Tween 80 to the desired concentration.
With Leucania separata, Plutella xylostella, and Chilo suppressalis as targets, airbrush spray method was used for the determination of activity.
Determination method: 1) Preparation of Oryza sativa seedlings: Oryza sativa was cultivated in a constant temperature room (a temperature of 26-28° C., a relative humidity of about 60-80%, and a light illumination of 16hL:8hD) in a small plastic cup with a diameter of 4.5 cm and a height of 4 cm, and when the Oryza sativa grew up to the 4-5 leaf stage, robust and consistent Oryza sativa seedlings were selected for chemical treatment, and 3 repetitions were performed for each treatment. 2) Preparation for test insects: Chilo suppressalis at 3rd instar larvae were raised continuously indoors. 3) The Oryza sativa stems were sprayed and insects were introduced. Spraying was performed uniformly on the whole plant of the Oryza sativa seedlings, with 15 ml of compound solution for each treatment. The blank control was treated first, and then the above operations were repeated in the order of the test concentration from low to high. After the Oryza sativa seedlings were sprayed, they were placed in a cool place to dry the liquid, and about 5 cm of stalks at the base of the stems were cut and fed to the test insects. A glass petri dish with a diameter of 90 mm was placed with filter paper at the bottom of the dish, and then was moisturized by adding water. After that, about 5 rice stalks and 10 larvae were placed in each dish, and the petri dish was sealed with a non-woven fabric and placed in a constant temperature room for cultivation. The number of remaining live insects was investigated 3 days after the treatment.
The compounds 1, 3, 7, 11 of this disclosure and the comparative compounds were selected for a parallel comparison test of the insecticidal activity against Chilo suppressalis (3 days after the treatment), through a same determination method as that described above.

`O=C(Nc1c(Br)cc(C(F)(C(F)(F)F)C(F)(F)F)cc1Br)c1cccc(N(CC2CC2)C(=O)c2ccc(F)cc2)c1F` [Compound 1-1]: the pest or weed control at 1 µg/mL was found to be 50%; the pest or weed control at 10 µg/mL stood at 100%; the “Lethality rate (%, 3 days after the treatment) 0.25 mg/L” value turned out to be 0%; the “Lethality rate (%, 3 days after the treatment) 0.5 mg/L” value was found to be 13.33%.
With `O=C(Nc1c(Br)cc(C(F)(C(F)(F)F)C(F)(F)F)cc1Br)c1cccc(N(CC2CC2)C(=O)c2cccnc2)c1F` [Compound 1-2], the pest or weed control at 1 µg/mL was 0% and the pest or weed control at 10 µg/mL came out at 0%.
`O=C(Nc1c(Br)cc(C(F)(C(F)(F)F)C(F)(F)F)cc1C(F)(F)F)c1cccc(N(CC2CC2)C(=O)c2ccc(F)cc2)c1F` [Compound 2-1]: the pest or weed control at 1 µg/mL was determined as 96.7%; the pest or weed control at 10 µg/mL is 100%; the “Lethality rate (%, 3 days after the treatment) 0.25 mg/L” value worked out at 23.33%; the “Lethality rate (%, 3 days after the treatment) 0.5 mg/L” value came out at 66.67%.
The matching figures for `O=C(Nc1c(Br)cc(C(F)(C(F)(F)F)C(F)(F)F)cc1C(F)(F)F)c1cccc(N(CC2CC2)C(=O)c2ccc(C(F)(F)F)cc2)c1F` [Compound 3-1]: 56.7%, 100%, 0% and 26.67%.
With `O=C(Nc1c(Br)cc(C(F)(C(F)(F)F)C(F)(F)F)cc1C(F)(F)F)c1cccc(N(CC2CC2)C(=O)c2ccc(F)nc2)c1F` [Compound 3], the pest or weed control at 1 µg/mL was determined as 100%; the pest or weed control at 10 µg/mL was 100%; the “Lethality rate (%, 3 days after the treatment) 0.25 mg/L” value is listed as 100%; the “Lethality rate (%, 3 days after the treatment) 0.5 mg/L” value amounted to 100%.
Regarding `N#Cc1ccc(C(=O)N(CC2CC2)c2cccc(C(=O)Nc3c(Br)cc(C(F)(C(F)(F)F)C(F)(F)F)cc3C(F)(F)F)c2F)cc1` [Compound 4-1], the pest or weed control at 1 µg/mL came to 93.3%; the pest or weed control at 10 µg/mL was found to be 100%; the “Lethality rate (%, 3 days after the treatment) 0.25 mg/L” value turned out to be 16.67%; the “Lethality rate (%, 3 days after the treatment) 0.5 mg/L” value is 53.33%.
Regarding `O=C(Nc1c(Br)cc(C(F)(C(F)(F)F)C(F)(F)F)cc1C(F)(F)F)c1cccc(N(CC2CC2)C(=O)c2cccnc2)c1F` [Compound 5-1], the pest or weed control at 1 µg/mL was found to be 0% and the pest or weed control at 10 µg/mL is 16.7%.
Consider `O=C(Nc1c(Br)cc(C(F)(C(F)(F)F)C(F)(F)F)cc1C(F)(F)F)c1cccc(N(CC2CC2)C(=O)c2ccc(Cl)nc2)c1F` [Compound 5-2], for which the pest or weed control at 1 µg/mL is 33.3%; the pest or weed control at 10 µg/mL was 70%; the “Lethality rate (%, 3 days after the treatment) 0.5 mg/L” value is 0%.
With `N#Cc1ccc(C(=O)N(CC2CC2)c2cccc(C(=O)Nc3c(Br)cc(C(F)(C(F)(F)F)C(F)(F)F)cc3C(F)(F)F)c2F)cn1` [Compound 11], the pest or weed control at 1 µg/mL stood at 100%; the pest or weed control at 10 µg/mL stood at 100%; the “Lethality rate (%, 3 days after the treatment) 0.25 mg/L” value stood at 100%; the “Lethality rate (%, 3 days after the treatment) 0.5 mg/L” value came out at 100%.
